One data set has as its system rodents. The settings on record: cited from earlier work.
Data set [1] relates to rats. Particulars: cited from earlier work.
Data set [2] relates to amyloid precursor protein transgenic mice. The settings on record: after acute sleep restriction, APP transgenic mice; cited from earlier work.
Data set [3] relates to rat. Particulars: cited from earlier work.
The subject of data set [4] is rat. The settings on record: rat model; cited from earlier work.
Data set [5] has as its system rats. Particulars: rats treated with the compound; cited from earlier work.
The subject of a further data set is fasted hungry rats. The settings on record: fasted hungry rats exposed to food odors; cited from earlier work.
In a further data set the test system is mouse. The settings on record: mouse model of depression, administered chronically; cited from earlier work.
The test system of another data set is humans. Particulars: cited from earlier work.
Data set [6] has as its system rat. Particulars: rat fear-potentiated startle paradigm; cited from earlier work.
For another data set, the target named is human orexin-1 receptor (Homo sapiens (Human), UniProt O43613). Nature of the data set: In vitro intracellular calcium measurements (FLIPR), antagonistic activity on orexin-1 receptor. In kind it is cell-based. In outline:
(§1)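 CHO cells expressing human orexin-1 or orexin-2 receptor were seeded overnight, preincubated with antagonist for 120 min, then stimulated with agonist in a FLIPR Tetra.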
(In general: Calcium flux is commonly read through the fluorescence of an indicator in the cells.)

The next data set has as its target human orexin-2 receptor (Homo sapiens (Human), UniProt O43614). Nature of the data set: In vitro intracellular calcium measurements (FLIPR), antagonistic activity on orexin-2 receptor. The data set is classed as cell-based. The settings on record: read-out: IC50 OX2. In outline: as §1
The target in another data set is CYP3A4 (Homo sapiens (Human), UniProt P08684). In words: CYP3A4 inhibition assay (human liver microsomes, testosterone 6β-hydroxylation). The settings on record: read-out: CYP3A4 IC50, 40 μM testosterone.
Data set [7] in a line: Measurement of brain and systemic concentration after oral administration. In kind it is in vivo. The settings on record: rat, brain, male wistar rats, oral 100 mg/kg, read-out: brain concentration [B]; for concentration at 1 h: formulated in 10% PEG400/90% MC0.5%, sampled at 1 h; for concentration at 3 h: formulated in 100% PEG400, sampled at 3 h. The protocol: Measurement of Brain and Systemic Concentration after Oral Administration:
In order to assess brain penetration, the concentration of the compound is measured in plasma ([P]), and brain ([B]), sampled 1 h or 3 h (or at different time points) following oral administration (100 mg/kg) to male wistar rats (n=3). The compounds are formulated either in 100% PEG 400 or 10% PEG400/90% MC0.5%. Samples are collected in the same animal at the same time point (+/−5 min). Blood is sampled from the vena cava caudalis into containers with EDTA as anticoagulant and centrifuged to yield plasma. Brain is sampled after cardiac perfusion of 10 mL NaCl 0.9% and homogenized into one volume of cold phosphate buffer (pH 7.4). All samples are extracted with MeOH and analyzed by LC-MS/MS. Concentrations are determined with the help of calibration curves. Inter-individual variations between the three rats were limited. Particular compounds of the present invention tested as described above gave brain concentrations ([B]) as shown in Table 16 below; wherein the compounds of Examples 11-37 and 94 were formulated in 100% PEG400 and sampled at 3 h. All other examples below were formulated in 10% PEG400/90% MC0.5% and sampled at 1 h.

Where [8] appears, read: CHO cells expressing human orexin-2 receptor, FLIPR, 3 nM orexin-A agonist, 120 min antagonist incubation, geometric mean if determined several times.
[9] abbreviates: CHO cells expressing human orexin-1 receptor, FLIPR, 3 nM orexin-A agonist, 120 min antagonist incubation, geometric mean if determined several times, read-out: IC50 OX1.

The values below come from patent US9150566B2, “2-(1,2,3-triazol-2-yl)benzamide and 3-(1,2,3-triazol-2-YL)picolinamide derivatives as orexin receptor antagonists” (ACTELION PHARMACEUTICALS LTD., priority 2011, dated 2015).

Read-outs that look alike come from different tables or passages of the source.

human orexin-2 receptor, sequence (O43614 whole entry): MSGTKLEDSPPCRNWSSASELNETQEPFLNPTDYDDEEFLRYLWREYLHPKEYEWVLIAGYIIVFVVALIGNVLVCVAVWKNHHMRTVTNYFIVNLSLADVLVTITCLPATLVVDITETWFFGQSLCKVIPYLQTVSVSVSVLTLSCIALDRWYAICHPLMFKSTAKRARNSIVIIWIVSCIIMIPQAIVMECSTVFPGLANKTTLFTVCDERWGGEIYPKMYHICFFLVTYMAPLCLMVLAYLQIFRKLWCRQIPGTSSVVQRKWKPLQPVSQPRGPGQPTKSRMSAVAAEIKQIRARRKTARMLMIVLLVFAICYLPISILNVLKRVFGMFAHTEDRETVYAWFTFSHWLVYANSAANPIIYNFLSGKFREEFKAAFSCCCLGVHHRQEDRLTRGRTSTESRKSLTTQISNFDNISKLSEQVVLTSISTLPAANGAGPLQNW
human orexin-1 receptor, sequence (O43613 whole entry): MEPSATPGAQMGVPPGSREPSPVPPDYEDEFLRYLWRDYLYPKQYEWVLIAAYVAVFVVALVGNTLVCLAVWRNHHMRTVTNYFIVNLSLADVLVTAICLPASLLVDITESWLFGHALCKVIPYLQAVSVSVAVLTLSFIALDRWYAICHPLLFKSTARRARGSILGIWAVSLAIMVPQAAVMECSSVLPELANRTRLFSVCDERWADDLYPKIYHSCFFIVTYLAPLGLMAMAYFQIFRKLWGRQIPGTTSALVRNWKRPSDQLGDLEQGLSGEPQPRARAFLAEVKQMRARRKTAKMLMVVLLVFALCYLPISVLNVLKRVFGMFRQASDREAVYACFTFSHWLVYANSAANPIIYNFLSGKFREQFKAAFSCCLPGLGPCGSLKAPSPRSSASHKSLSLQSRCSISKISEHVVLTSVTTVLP
CYP3A4, sequence (P08684 whole entry): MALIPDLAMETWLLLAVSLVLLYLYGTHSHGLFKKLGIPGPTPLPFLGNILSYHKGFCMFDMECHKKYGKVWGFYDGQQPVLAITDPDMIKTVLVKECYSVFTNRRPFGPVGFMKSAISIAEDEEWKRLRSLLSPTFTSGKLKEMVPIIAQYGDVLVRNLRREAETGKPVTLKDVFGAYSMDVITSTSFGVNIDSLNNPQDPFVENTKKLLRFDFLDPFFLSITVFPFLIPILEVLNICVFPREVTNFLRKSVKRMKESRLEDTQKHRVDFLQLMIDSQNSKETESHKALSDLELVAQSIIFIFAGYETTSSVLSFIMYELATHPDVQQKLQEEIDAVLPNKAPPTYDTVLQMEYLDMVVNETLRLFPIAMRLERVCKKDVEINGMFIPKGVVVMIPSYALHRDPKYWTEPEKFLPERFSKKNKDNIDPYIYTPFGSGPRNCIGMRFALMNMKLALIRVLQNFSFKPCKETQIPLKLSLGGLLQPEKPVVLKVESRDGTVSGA

As to `Cn1c(SCC(=O)N2CCC[C@H]2C(=O)Nc2ccccc2-c2ccccc2)nc2ccccc21` [N-biphenyl-2-yl-1-{[(1-methyl-1H-benzimidazol-2-yl)sulfanyl]acetyl}-L-prolinamide], in the data set with rodents, the “behavioral and molecular changes induced by repeated amphetamine administration” value is “reduced behavioral (locomotor sensitization) and molecular (transcriptional responses) changes induced by repeated amphetamine administration”; the “nicotine-reinstatement for a conditioned reinforcer” value is “inhibited nicotine-reinstatement for a conditioned reinforcer”.

Take `CNC(=O)[C@@H](c1ccccc1)N1CCc2cc(OC)c(OC)cc2[C@@H]1CCc1ccc(C(F)(F)F)cc1` [(2R)-2-{(1S)-6,7-dimethoxy-1-[2-(4-trifluoromethyl-phenyl)-ethyl]-3,4-dihydro-1H-isoquinolin-2-yl}-N-methyl-2-phenyl-acetamide]: in the data set with rats [1], the “cardiovascular responses to conditioned fear and novelty exposure” value is “attenuated cardiovascular responses to conditioned fear and novelty exposure”. In addition, in data set [2], the “brain levels of amyloid-beta and plaque deposition” value is “decreased brain levels of amyloid-beta (Aβ) as well as AO plaque deposition”. In the data set on rat [3], the “alertness (active wake and locomotion)” value is “decrease alertness”; the “time spent in REM and NREM sleep” value was “dose-dependently increase the time spent in both REM and NREM sleep”. The “pharmacological activity, nicotine self-administration” value in the data set on rat [4] is “displayed pharmacological activity”. Moreover, in the data set on rats [5], the learning and memory entry was “intact declarative and non-declarative learning and memory”. Besides, the “natural activation induced by orexin A” value in the data set with fasted hungry rats is recorded as “attenuate the natural activation induced by orexin A”. Moreover, the antidepressant-like activity result with mouse was “induce antidepressant-like activity”. In the data set on humans, the “clinical efficacy, primary insomnia” value is “showed clinical efficacy”. Also, in the data set on rat [6], the “activity in animal model of conditioned fear” value is “active”.

Usually IC50 stands for the concentration that inhibits the measured activity by half. `Cc1cccc(C(=O)N2CCOC[C@H]2Cc2cccc(-n3nccn3)c2)c1-n1nccn1` [Example 64, (3-Methyl-2-[1,2,3]triazol-2-yl-phenyl)-[(R)-3-(3-[1,2,3]triazol-2-yl-benzyl)-morpholin-4-yl]-methanone]: the IC50 on human orexin-1 receptor was 6 nM; on human orexin-2 receptor (setting [8]), 784 nM; at CYP3A4, 33000 nM. Moreover, the concentration at 1 h in data set [7] came to 2370 ng/g.

For the compound `COc1cc(C(=O)N2CCOC[C@H]2Cc2cccc(-n3nccn3)c2)c(-n2nccn2)cc1C` [Example 37, (5-Methoxy-4-methyl-2-[1,2,3]triazol-2-yl-phenyl)-[(R)-3-(3-[1,2,3]triazol-2-yl-benzyl)-morpholin-4-yl]-methanone], the figures for the IC50 at human orexin-1 receptor (setting [9]), on human orexin-2 receptor (setting [8]) and at CYP3A4 were 4 nM, 209 nM and 17000 nM, respectively. For the same compound, in data set [7], the concentration at 3 h was found to be 881 ng/g.

`O=C(c1ccc(Cl)cc1-n1nccn1)N1CCOC[C@H]1Cc1cccc(-n2nccn2)c1` [Example 77, (4-Chloro-2-[1,2,3]triazol-2-yl-phenyl)-[(R)-3-(3-[1,2,3]triazol-2-yl-benzyl)-morpholin-4-yl]-methanone]: the results for the IC50 on human orexin-1 receptor (setting [9]), on human orexin-2 receptor (setting [8]) and at CYP3A4 were 1 nM, 96 nM and 16000 nM, respectively. For the same compound, the concentration at 1 h in data set [7] is 1610 ng/g.

Regarding `O=C(c1ccccc1-n1nccn1)N1CCOC[C@H]1Cc1cccc(-n2nccn2)c1` [Example 12, [(R)-3-(3-[1,2,3]Triazol-2-yl-benzyl)-morpholin-4-yl]-(2-[1,2,3]triazol-2-yl-phenyl)-methanone], the IC50 on human orexin-1 receptor (setting [9]) worked out at 17 nM; on human orexin-2 receptor (setting [8]), 1240 nM; at CYP3A4, 30000 nM. Also, the concentration at 3 h in data set [7] is 11900 ng/g.

As for `Cc1ccc(C(=O)N2CCOC[C@H]2Cc2cc(-n3nccn3)ccc2Cl)c(-n2nccn2)c1` [Example 120, [(R)-3-(2-Chloro-5-[1,2,3]triazol-2-yl-benzyl)-morpholin-4-yl]-(4-methyl-2-[1,2,3]triazol-2-yl-phenyl)-methanone], the IC50 at human orexin-1 receptor (read-out: IC50 OX1) amounted to 3 nM; at human orexin-2 receptor, 531 nM; on CYP3A4, 19000 nM. In addition, the concentration at 1 h in data set [7] worked out at 5130 ng/g.
